Assay results reported in the NIST ThermoML archive (doi:10.1016/j.jct.2016.02.007).

Test: wn = mass fraction of the nth substance listed
Conditions: 101.3 kPa, Liquid, Vibrating tube method

CN(C)CCCO [3-dimethylamino-1-propanol] + O
mass density [kg/m3]
Conditions	w1 = 0.1	w1 = 0.2	w1 = 0.3	w1 = 0.4	w1 = 0.5	w1 = 0.6	w1 = 0.7	w1 = 0.8	w1 = 0.9	w1 = 1
293.15 K	992.9	989.7	986.6	981.7	975.1	962.4	948.3	933.1	910.9	886.7
298.15 K	991.5	987.7	983.9	978.3	971.4	958.5	944.3	929.2	907.1	883
303.15 K	989.8	985.5	980.9	974.9	967.6	954.6	940.2	925.2	903.2	879.1
308.15 K	987.9	983.1	978	971.4	963.8	950.6	936.1	921.2	899.2	875.1
313.15 K	985.9	980.4	974.8	967.8	959.9	946.5	932	917.1	895.2	871.2
318.15 K	983.6	977.3	971.6	964.2	956	942.4	927.8	912.9	891.1	867.2
323.15 K	981.2	975	968.2	960.4	952.1	938.2	923.6	908.7	887	863.1
328.15 K	978.6	972	964.7	956.7	948	934	919.3	904.5	882.9	859.1
333.15 K	975.9	968.9	961	952.8	943.9	929.7	915	900.2	878.7	855
338.15 K	973.1	965.8	957.9	948.9	939.8	925.4	910.6	895.8	874.4	850.8
343.15 K	970.1	962.5	954.2	944.9	935.6	921	906.2	891.4	870.1	846.7
